# Measurements: PMC7555825, “New Insights of the Zn(II)-Induced P2 × 4R Positive Allosteric Modulation: Role of Head Receptor Domain SS2/SS3, E160 and D170” (International Journal of Molecular Sciences, 2020)
# Tests used:
# [1] = biological target: T1, rP2 × 4R (Rattus norvegicus, UniProt P51577); assay: Short protocol: Zn(II) potentiation of single 10 µM ATP-evoked currents before/after thiol reagent treatment, rP2 × 4R oocytes; type: cell-based; settings: for effect of alkylator plus Zn(II) treatment on Zn(II)-induced potentiation: 300 µM alkylator + 10 µM Zn(II)
# T1 construct: host or cells: Xenopus laevis oocytes (intranuclear plasmid injection, pcDNA3)
# T1 sequence (P51577 1-388): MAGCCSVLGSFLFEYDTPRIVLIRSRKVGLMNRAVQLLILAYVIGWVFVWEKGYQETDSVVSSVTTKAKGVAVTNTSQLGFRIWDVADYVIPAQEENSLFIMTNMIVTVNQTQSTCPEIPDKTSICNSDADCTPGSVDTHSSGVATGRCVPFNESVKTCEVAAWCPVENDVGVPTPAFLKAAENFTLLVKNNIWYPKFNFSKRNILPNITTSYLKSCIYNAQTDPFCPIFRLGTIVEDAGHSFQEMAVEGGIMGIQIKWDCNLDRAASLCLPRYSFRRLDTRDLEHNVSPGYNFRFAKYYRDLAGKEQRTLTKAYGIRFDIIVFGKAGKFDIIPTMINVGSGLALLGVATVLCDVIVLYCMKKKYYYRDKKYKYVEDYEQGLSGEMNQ
# Experimental: (§1) A simpler and shorter assay to test the Zn(II) potentiation was developed to better assess the loss of Zn(II) modulation elicited by the joint co-treatment of NEM plus Zn(II). […] Ten minutes after alkylator washout, cells were treated with Zn(II) plus NEM or iodoacetamide (IA) for 5 min followed by 20 min of alkylator washout. Next, the P2 × R was tested again to examine the magnitude of the Zn(II) potentiation.
# (§2) After 10 min of washout we applied 300 µM NEM, 300 µM IA, 300 µM IAc, or 300 µM DTNB for 5 min in absence or presence of Zn(II) (10 µM for rP2 × 4R and 30 µM for rP2 × 2R).
# (§3) After 10 min of washout we applied 300 µM NEM + 10 µM DTT.
# [2] = test system: oocytes; assay: Toxicity of DTT to oocytes (loss of holding potential); type: cell-based, Xenopus laevis; settings: DTT concentrations larger than 100 µM; holding potential lost
# Experimental: Larger DTT concentrations were toxic since the oocyte holding potential was lost, a likely acute toxicity indication.
# as §3
# [3] = biological target: T1, rP2 × 4R; assay: Short protocol: Zn(II) potentiation of single 10 µM ATP-evoked currents before/after thiol reagent treatment, rP2 × 4R oocytes; type: cell-based; settings: 10, 30, 100 µM DTT
# [4] = biological target: T2, rP2 × 2R (Rattus norvegicus, UniProt P49653); assay: Short protocol: Zn(II) potentiation of single 10 µM ATP-evoked currents before/after thiol reagent treatment, rP2 × 2R oocytes; type: cell-based; design: expressed in transfected cells; host or cells: Xenopus laevis oocytes (intranuclear plasmid injection); settings: for effect of alkylator plus Zn(II) treatment on Zn(II) potentiation/modulation: 300 µM alkylator + 30 µM Zn(II), 5 min, 20 min washout
# T2 sequence (P49653 1-472): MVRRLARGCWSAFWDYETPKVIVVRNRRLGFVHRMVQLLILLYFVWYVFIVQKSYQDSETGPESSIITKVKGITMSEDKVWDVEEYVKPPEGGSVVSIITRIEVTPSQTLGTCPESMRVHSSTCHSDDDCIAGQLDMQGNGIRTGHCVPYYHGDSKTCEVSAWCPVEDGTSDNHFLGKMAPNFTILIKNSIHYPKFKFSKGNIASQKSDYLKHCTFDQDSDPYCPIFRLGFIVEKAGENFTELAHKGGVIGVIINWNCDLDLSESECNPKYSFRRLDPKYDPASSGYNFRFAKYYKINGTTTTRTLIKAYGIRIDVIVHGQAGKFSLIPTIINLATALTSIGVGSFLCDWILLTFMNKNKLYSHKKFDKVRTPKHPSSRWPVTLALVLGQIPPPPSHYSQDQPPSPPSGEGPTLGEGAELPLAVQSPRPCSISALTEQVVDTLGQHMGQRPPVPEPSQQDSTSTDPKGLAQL
# Experimental: as §1, §2
# [5] = biological target: T1, rP2 × 4R; design: method as in PMID 17962187; settings: treatment in the absence of Zn(II); cited from earlier work
# [6] = biological target: T1, rP2 × 4R; assay: ATP concentration–response curves, two-electrode voltage clamp in oocytes expressing wild type rP2 × 4R; type: cell-based; settings: NEM plus Zn(II) treatment; irreversible alkylation
structure (smiles),measurement,setting,value
"O[C@@H](CS)[C@@H](O)CS (racemic) [DTT, dithiothreitol]",fold enhancement of ATP-evoked currents after treatment,"[1]; after combined 10 µM DTT plus 300 µM NEM treatment, 5 min, 20 min washout",3.9 ± 1.2 fold
same,toxicity to oocytes,[2],toxic
same,potentiation of 10 µM ATP-evoked currents by co-applied DTT,[3],"neither 10, 30, nor 100 µM DTT potentiated the ATP-evoked currents"
"O=C(O)c1cc(SSc2ccc([N+](=O)[O-])c(C(=O)O)c2)ccc1[N+](=O)[O-] [DTNB, 5,5’-dithiobis-(2-nitrobenzoic) acid]",effect of alkylator plus Zn(II) treatment on Zn(II)-induced potentiation,"[1]; 5 min, 20 min washout",neither of the reagents blocked
"NC(=O)CI [IA, Iodoacetamide]",ATP-evoked currents after IA plus Zn(II) treatment,"[1]; 300 µM IA + 10 µM Zn(II), 5 min, 20 min washout",not increased
same,effect of alkylator plus Zn(II) treatment on Zn(II)-induced potentiation,"[1]; 5 min, 20 min washout",abolished the Zn(II)-induced potentiation
same,effect of alkylator plus Zn(II) treatment on Zn(II) potentiation/modulation,[4],annulled the Zn(II) potentiation
same,fold enhancement of ATP-evoked currents after treatment,[4]; after IA + 30 µM Zn(II) treatment,8.6 ± 3.3 fold
"O=C(O)CI [IAc, Iodoacetate]",effect of alkylator plus Zn(II) treatment on Zn(II)-induced potentiation,"[1]; 5 min, 20 min washout",neither of the reagents blocked
"C[N+](C)(C)CCSS(C)(=O)=O [MTSET, 2-(trimethylammonium)ethyl methanethiosulfonate]",effect of MTSET treatment on Zn(II) potentiation,[5],diminish the Zn(II) potentiation
"CCN1C(=O)C=CC1=O [NEM, N-ethylmaleimide]",time the lack of metal potentiation endured after NEM treatment,[6],at least 1 h
same,fold increase of ATP-evoked currents after treatment,"[1]; 10 µM ATP, after 300 µM NEM plus 10 µM Zn(II) treatment, vs first ATP current",4.0 ± 1.0 fold
same,effect of alkylator plus Zn(II) treatment on Zn(II)-induced potentiation,"[1]; 5 min, 20 min washout",abolished the Zn(II)-induced potentiation
same,effect of alkylator plus Zn(II) treatment on Zn(II) potentiation/modulation,[4],Did Not Annul
same,fold enhancement of ATP-evoked currents after treatment,[4]; after NEM + 30 µM Zn(II) treatment,3.3 ± 0.5 fold
